These results are taken from patent publication US8748417B2, “Amino-pyrrolidine-azetidine diamides as monoacylglycerol lipase inhibitors” (Janssen Pharmaceutica, NV, priority 2010, dated 2014).

A word on the IC50: it is the concentration needed to halve the response being measured.

In assay [1] the target is T1, purified wild type MGL (wt-MGLL 6H-11-313) (Homo sapiens, UniProt Q99685).
T1 construct: purified wild type MGL (wt-MGLL 6H-11-313)
T1 sequence (Q99685 1-303): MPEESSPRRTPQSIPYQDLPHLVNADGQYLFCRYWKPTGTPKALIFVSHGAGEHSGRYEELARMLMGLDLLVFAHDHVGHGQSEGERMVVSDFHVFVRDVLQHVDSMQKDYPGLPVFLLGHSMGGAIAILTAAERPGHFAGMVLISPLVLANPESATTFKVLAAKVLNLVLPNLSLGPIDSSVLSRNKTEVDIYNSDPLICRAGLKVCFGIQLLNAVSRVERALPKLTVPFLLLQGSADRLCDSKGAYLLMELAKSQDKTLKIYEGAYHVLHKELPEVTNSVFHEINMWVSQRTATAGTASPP
The assay is described as follows: MGL enzyme activity assay (4MU-B cleavage), wild type MGL. As to conditions: wild type MGL 5 nM, 4MU-B 10 μM, 37° C.; read-out: MGL wild type inh IC50. It is filed as biochemical. An outline of the steps: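 Enzyme in 20 mM PIPES pH 7.0, 150 mM NaCl, 0.001% Tween 20 with 4MU-B at 10 μM final and MGL at 5 nM final; compounds 17 to 0.0003 μM final, enzyme added last. Fluorescence (ex 335/em 440 nm) followed at 37° C for 5 min; IC50 from fit of fractional activity versus inhibitor concentration.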

Assay [2] concerns MGL (rat brain homogenate). Description: 2-AG accumulation assay in rat brain homogenate. As to conditions: compound 1 μM, percent of vehicle 2-AG accumulation. It is filed as biochemical. Put shortly:
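Rat brain homogenate was incubated with compound for 15 min at 37° C., after which CaCl2 was added to a final concentration of 10 mM and incubation continued for 15 min at 37° C. in 5 mL total. Reactions were stopped with 6 mL of 2:1 chloroform/methanol, and 2-AG accumulated in the organic phase was quantified by HPLC/MS.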

The target of another assay is T2, mutant MGL (Homo sapiens, UniProt Q99685, L169S/L176S).
T2 construct: purified mutant MGL (mut-MGLL 11-313 L179S L186S)
T2 sequence (Q99685 1-303 L169S/L176S): T1 sequence (Q99685 1-303) with L169S, L176S
Description: MGL ThermoFluor assay - mutant. It is filed as binding. To be noted: qNMR-corrected compound concentration; read-out: MGL mutant ThermoFluor qKd. The protocol:
The ThermoFluor (TF) assay is a 384-well plate-based binding assay that measures thermal stability of proteins^1,2. The experiments were carried out using instruments available from Johnson & Johnson Pharmaceutical Research & Development, LLC. TF dye used in all experiments was 1,8-ANS (Invitrogen: A-47). Final TF assay conditions used for MGL studies were 0.07 mg/ml of mutant MGL, 100 μM ANS, 200 mM NaCl, 0.001% Tween-20 in 50 mM PIPES (pH=7.0).
Screening compound plates contained 100% DMSO compound solutions at a single concentration. For follow-up concentration-response studies, compounds were arranged in a pre-dispensed plate (Greiner Bio-one: 781280), wherein compounds were serially diluted in 100% DMSO across 11 columns within a series. Columns 12 and 24 were used as DMSO reference and contained no compound. For both single and multiple compound concentration-response experiments, the compound aliquots (46 nL) were robotically predispensed directly into 384-well black assay plates (Abgene: TF-0384/k) using the Hummingbird liquid handler. Following compound dispension, protein and dye solutions were added to achieve the final assay volume of 3 μL. The assay solutions were overlayed with 1 μL of silicone oil (Fluka, type DC 200: 85411) to prevent evaporation.
Bar-coded assay plates were robotically loaded onto a thermostatically controlled PCR-type thermal block and then heated from 40 to 90° C. degrees at a ramp-rate of 1° C./min for all experiments. Fluorescence was measured by continuous illumination with UV light (Hamamatsu LC6), supplied via fiber optics and filtered through a band-pass filter (380-400 nm; >6 OD cutoff). Fluorescence emission of the entire 384-well plate was detected by measuring light intensity using a CCD camera (Sensys, Roper Scientific) filtered to detect 500±25 nm, resulting in simultaneous and independent readings of all 384 wells. A single image with 20-sec exposure time was collected at each temperature, and the sum of the pixel intensity in a given area of the assay plate was recorded vs temperature and fit to standard equations to yield the Tm^1. • 1. Pantoliano, M. W., Petrella, E. C., Kwasnoski, J. D., Lobanov, V. S., Myslik, J., Graf, E., Carver, T., Asel, E., Springer, B. A., Lane, P., and Salemme, F. R. (2001) J Biomol Screen 6, 429-40. • 2. Matulis, D., Kranz, J. K., Salemme, F. R., and Todd, M. J. (2005) Biochemistry 44, 5258-66.
The Kd values for certain compounds of Formula (I) were determined from a fit of the equation to the concentration-response plot of the fractional activity as a function of […]. For some experiments, quantitative NMR spectroscopy (qNMR) was used to measure concentration of the initial 100% DMSO compound solutions and, using the same fitting method, qKd values were determined.
On the technique in general: DSF heats the sample and reads unfolding from a dye or from intrinsic fluorescence.

Residue numbers refer to the chain shown, from its start.

With `O=C(c1ccc2c(-c3cccc(F)c3)c[nH]c2c1)N1CC(N[C@H]2CCN(C(=O)c3nccs3)C2)C1` [Cpd 202, (3S)-N-(1-{[3-(3-Fluorophenyl)-1H-indol-6-yl]carbonyl}azetidin-3-yl)-1-(1,3-thiazol-2-ylcarbonyl)pyrrolidin-3-amine], in assay [1], the half-inhibitory concentration (IC50) is 11 nM. Further, the “Rat Brain 2AG % VehCntrl (%) @1 μM” value in assay [2] is 363%. The Kd on mutant MGL was 56.3 nM.
For `O=C(c1ccc2c(-c3cccc(F)c3)c[nH]c2c1)N1CC(N[C@H]2CCN(C(=O)c3cscn3)C2)C1` [Cpd 203, (3S)-N-(1-{[3-(3-Fluorophenyl)-1H-indol-6-yl]carbonyl}azetidin-3-yl)-1-(1,3-thiazol-4-ylcarbonyl)pyrrolidin-3-amine] the same measures were 50.4 nM, 238% and 264 nM.
For the molecule `O=C(c1ccc2c(-c3cccc(F)c3)c[nH]c2c1)N1CC(N[C@H]2CCN(C(=O)c3ccccc3)C2)C1` [Cpd 204, (3S)-N-(1-{[3-(3-Fluorophenyl)-1H-indol-6-yl]carbonyl}azetidin-3-yl)-1-(phenylcarbonyl)pyrrolidin-3-amine], in assay [1], the IC50 turned out to be 344 nM. Further, on mutant MGL, the Kd was 186 nM.
As to `Cn1cc(-c2cccc(F)c2)c2ccc(C(=O)N3CC(N[C@H]4CCN(C(=O)c5nccs5)C4)C3)cc21` [Cpd 205, (3S)-N-(1-{[3-(3-Fluorophenyl)-1-methyl-1H-indol-6-yl]carbonyl}azetidin-3-yl)-1-(1,3-thiazol-2-ylcarbonyl)pyrrolidin-3-amine], the IC50 in assay [1] is < 5 nM. Further, the “Rat Brain 2AG % VehCntrl (%) @1 μM” value in assay [2] is reported as 446%. The Kd on mutant MGL amounted to 21.4 nM.
For `Cn1cc(-c2cccc(F)c2)c2ccc(C(=O)N3CC(N[C@H]4CCN(C(=O)c5cscn5)C4)C3)cc21` [Cpd 206, (3S)-N-(1-{[3-(3-Fluorophenyl)-1-methyl-1H-indol-6-yl]carbonyl}azetidin-3-yl)-1-(1,3-thiazol-4-ylcarbonyl)pyrrolidin-3-amine] the same measures were 81 nM, 267% and 122 nM.
In the case of `Cn1cc(-c2cccc(F)c2)c2ccc(C(=O)N3CC(N[C@H]4CCN(C(=O)c5ccccc5)C4)C3)cc21` [Cpd 207, (3S)-N-(1-{[3-(3-Fluorophenyl)-1-methyl-1H-indol-6-yl]carbonyl}azetidin-3-yl)-1-(phenylcarbonyl)pyrrolidin-3-amine], the IC50 in assay [1] is 63.9 nM. In assay [2], the “Rat Brain 2AG % VehCntrl (%) @1 μM” value turned out to be 238%. Also, the Kd on mutant MGL amounted to 100 nM.
Regarding `O=C(c1ccc2c(ccn2CC(F)F)c1)N1CC(N[C@H]2CCN(C(=O)c3nccs3)C2)C1` [Cpd 213, (3S)-N-(1-{[1-(2,2-Difluoroethyl)-1H-indol-5-yl]carbonyl}azetidin-3-yl)-1-(1,3-thiazol-2-ylcarbonyl)pyrrolidin-3-amine], the IC50 in assay [1] was 1390 nM. Moreover, on mutant MGL, the Kd is 963 nM.
Turning to `O=C(c1nccs1)N1CC[C@H](NC2CN(C(=O)c3cccc4c3ccn4-c3ccc(F)cc3)C2)C1` [Cpd 214, (3S)-N-(1-{[1-(4-Fluorophenyl)-1H-indol-4-yl]carbonyl}azetidin-3-yl)-1-(1,3-thiazol-2-ylcarbonyl)pyrrolidin-3-amine], in assay [1], the IC50 is 106 nM. In addition, the “Rat Brain 2AG % VehCntrl (%) @1 μM” value in assay [2] is 524%. In addition, on mutant MGL, the Kd was 530 nM.
In the case of `O=C(c1cscn1)N1CC[C@H](NC2CN(C(=O)c3cccc4c3ccn4-c3ccc(F)cc3)C2)C1` [Cpd 215, (3S)-N-(1-{[1-(4-Fluorophenyl)-1H-indol-4-yl]carbonyl}azetidin-3-yl)-1-(1,3-thiazol-4-ylcarbonyl)pyrrolidin-3-amine], the IC50 in assay [1] is 668 nM. Also, the Kd at mutant MGL was 1440 nM.
Take `O=C(c1cscn1)N1CC[C@H](NC2CN(C(=O)c3cccc4c3CCN4c3ccc(F)cc3)C2)C1` [Cpd 217, (3S)-N-(1-{[1-(4-Fluorophenyl)-2,3-dihydro-1H-indol-4-yl]carbonyl}azetidin-3-yl)-1-(1,3-thiazol-4-ylcarbonyl)pyrrolidin-3-amine]: the IC50 in assay [1] amounted to 723 nM. Besides, the Kd at mutant MGL turned out to be 1960 nM.
For `O=C(c1nccs1)N1CC[C@H](NC2CN(C(=O)c3cn(-c4cccc(F)c4)c4ccccc34)C2)C1` [Cpd 218, (3S)-N-(1-{[1-(3-Fluorophenyl)-1H-indol-3-yl]carbonyl}azetidin-3-yl)-1-(1,3-thiazol-2-ylcarbonyl)pyrrolidin-3-amine] the same measures were 1890 nM and 3450 nM.
For `O=C(c1nccs1)N1CC[C@H](NC2CN(C(=O)c3cn(-c4ccc(F)cc4)c4ccccc34)C2)C1` [Cpd 219, (3S)-N-(1-{[1-(4-Fluorophenyl)-1H-indol-3-yl]carbonyl}azetidin-3-yl)-1-(1,3-thiazol-2-ylcarbonyl)pyrrolidin-3-amine] the same measures were 4980 nM and 4980 nM.
For `CN(C(=O)Cn1ccc2cc(C(=O)N3CC(N[C@H]4CCN(C(=O)c5nccs5)C4)C3)ccc21)c1ccccc1` [Cpd 222, N-Methyl-N-phenyl-2-{5-[(3-{[(3S)-1-(1,3-thiazol-2-ylcarbonyl)pyrrolidin-3-yl]amino}azetidin-1-yl)carbonyl]-1H-indol-1-yl}acetamide] the same measures were 1680 nM and 3240 nM.
As for `O=C(c1nccs1)N1CC[C@H](NC2CN(C(=O)c3ccc4c(ccn4-c4ccc(F)cc4)c3Cl)C2)C1` [Cpd 223, (3S)-N-(1-{[4-Chloro-1-(4-fluorophenyl)-1H-indol-5-yl]carbonyl}azetidin-3-yl)-1-(1,3-thiazol-2-ylcarbonyl)pyrrolidin-3-amine], in assay [1], the IC50 was 14 nM. The Kd on mutant MGL is 143 nM.
Regarding `Cc1cc2c(ccn2-c2ccc(F)cc2)cc1C(=O)N1CC(N[C@H]2CCN(C(=O)c3nccs3)C2)C1` [Cpd 224, (3S)-N-(1-{[1-(4-Fluorophenyl)-6-methyl-1H-indol-5-yl]carbonyl}azetidin-3-yl)-1-(1,3-thiazol-2-ylcarbonyl)pyrrolidin-3-amine], in assay [1], the IC50 came to 224 nM. The Kd at mutant MGL came to 218 nM.
Take `O=C(c1nccs1)N1CC[C@H](NC2CN(C(=O)c3cc4ccn(-c5ccc(F)cc5)c4cc3Cl)C2)C1` [Cpd 225, (3S)-N-(1-{[6-Chloro-1-(4-fluorophenyl)-1H-indol-5-yl]carbonyl}azetidin-3-yl)-1-(1,3-thiazol-2-ylcarbonyl)pyrrolidin-3-amine]: the IC50 in assay [1] was determined as 39.2 nM. The Kd on mutant MGL came out at 102 nM.
